ChEMBL document CHEMBL3779874, “Pyridones as Highly Selective, Noncovalent Inhibitors of T790M Double Mutants of EGFR” (ACS Med Chem Lett, 2016)
≈ marks a conversion by molar mass, not a printed value. Calls of active or inactive are those of the source. No cut-off for these calls is given here.

Columns and labels:
[1] = target: T1, Epidermal growth factor receptor (Homo sapiens, UniProt P00533, L858R/T790M); assay: Inhibition of human EGFR catalytic domain (668 to 1210 residues) T790M/L858R double mutant using Fl-EEPLYWSFPAKKK-CONH2 peptide substrate preincubated for 30 mins followed by substrate addition measured after 30 mins by Caliper Mobility Shift Assay; assay type: protein assay; conditions: read-out: Ki(app)
[2] = species: Homo sapiens; assay: Selectivity ratio of Ki(app) for human N-terminal GST-tagged EGFR catalytic domain (669 to 1210 residues) expressed in baculovirus expression system to Ki(app) for human EGFR catalytic domain (668 to 1210 residues) T790M/L858R double mutant
[3] = target: Epidermal growth factor receptor (Homo sapiens, UniProt P00533); assay: Inhibition of human N-terminal GST-tagged EGFR catalytic domain (669 to 1210 residues) expressed in baculovirus expression system using Fl-EEPLYWSFPAKKK-CONH2 peptide substrate preincubated for 30 mins followed by substrate addition measured after 30 mins by Caliper Mobility Shift Assay; conditions: read-out: Ki(app)
Chain of Epidermal growth factor receptor (Homo sapiens, UniProt P00533) (P00533 whole entry, the tested form may be a part): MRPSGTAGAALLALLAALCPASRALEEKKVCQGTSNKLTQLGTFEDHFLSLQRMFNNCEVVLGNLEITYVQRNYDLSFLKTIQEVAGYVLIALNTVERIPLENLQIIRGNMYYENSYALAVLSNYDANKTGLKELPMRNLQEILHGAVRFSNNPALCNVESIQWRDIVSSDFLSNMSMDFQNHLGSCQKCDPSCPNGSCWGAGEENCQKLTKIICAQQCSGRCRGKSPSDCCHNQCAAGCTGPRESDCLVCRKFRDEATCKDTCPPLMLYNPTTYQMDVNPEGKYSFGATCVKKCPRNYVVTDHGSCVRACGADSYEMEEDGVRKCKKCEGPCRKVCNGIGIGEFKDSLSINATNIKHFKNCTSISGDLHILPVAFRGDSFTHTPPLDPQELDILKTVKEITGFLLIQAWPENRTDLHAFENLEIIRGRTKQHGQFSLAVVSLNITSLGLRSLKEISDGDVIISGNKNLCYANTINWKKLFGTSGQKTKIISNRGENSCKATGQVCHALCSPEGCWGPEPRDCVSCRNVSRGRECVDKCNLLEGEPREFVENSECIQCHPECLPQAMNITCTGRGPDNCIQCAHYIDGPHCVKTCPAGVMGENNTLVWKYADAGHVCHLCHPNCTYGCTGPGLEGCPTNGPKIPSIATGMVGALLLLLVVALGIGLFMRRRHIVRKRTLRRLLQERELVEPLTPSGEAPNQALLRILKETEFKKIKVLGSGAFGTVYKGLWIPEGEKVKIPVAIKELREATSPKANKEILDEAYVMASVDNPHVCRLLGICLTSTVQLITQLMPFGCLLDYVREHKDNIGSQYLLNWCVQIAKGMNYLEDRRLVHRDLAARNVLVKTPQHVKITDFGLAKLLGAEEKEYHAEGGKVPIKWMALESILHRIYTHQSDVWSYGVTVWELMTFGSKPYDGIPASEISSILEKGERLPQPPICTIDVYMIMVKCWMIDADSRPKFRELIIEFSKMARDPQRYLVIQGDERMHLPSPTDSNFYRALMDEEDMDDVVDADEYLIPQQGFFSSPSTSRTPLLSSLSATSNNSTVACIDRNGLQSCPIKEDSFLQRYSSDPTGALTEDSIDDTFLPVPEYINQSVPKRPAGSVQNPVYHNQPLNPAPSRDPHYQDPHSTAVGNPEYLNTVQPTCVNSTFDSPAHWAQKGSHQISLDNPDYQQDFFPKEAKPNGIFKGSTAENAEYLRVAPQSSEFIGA

[4] = species: Homo sapiens; assay: Selectivity ratio of Ki(app) for JAK1 (unknown origin) to Ki(app) for human EGFR catalytic domain (668 to 1210 residues) T790M/L858R double mutant
[5] = species: Homo sapiens; assay: Selectivity ratio of Ki(app) for JAK2 (unknown origin) to Ki(app) for human EGFR catalytic domain (668 to 1210 residues) T790M/L858R double mutant
[6] = Kinetic solubility of compound in pH7.4 DMSO/phosphate buffered saline after 24 hrs by chemiluminescent nitrogen detection method; assay type: physicochemical; conditions: pH 7.4, read-out: Kinetic_solubility
[7] = Lipophilicity, log D of compound at pH 7.4; assay type: physicochemical; conditions: buffer
[8] = system: H1975; assay: Ratio of EC50 for wild type EGFR phosphorylation in human H292 cells to EC50 for EGFR T790M/L858R double mutant phosphorylation in human H1975 cells; assay type: cell-based
[9] = target: T1, Epidermal growth factor receptor; assay: Inhibition of EGFR T790M/L858R double mutant phosphorylation in human H1975 cells preincubated for 1 hr followed by EGF stimulation for 8 mins by electrochemiluminescent immunoassay; assay type: cell-based
[10] = target: Tyrosine-protein kinase JAK1 (Homo sapiens, UniProt P23458); assay: Inhibition of JAK1 (unknown origin); conditions: read-out: Ki(app)
Chain of Tyrosine-protein kinase JAK1 (P23458 whole entry): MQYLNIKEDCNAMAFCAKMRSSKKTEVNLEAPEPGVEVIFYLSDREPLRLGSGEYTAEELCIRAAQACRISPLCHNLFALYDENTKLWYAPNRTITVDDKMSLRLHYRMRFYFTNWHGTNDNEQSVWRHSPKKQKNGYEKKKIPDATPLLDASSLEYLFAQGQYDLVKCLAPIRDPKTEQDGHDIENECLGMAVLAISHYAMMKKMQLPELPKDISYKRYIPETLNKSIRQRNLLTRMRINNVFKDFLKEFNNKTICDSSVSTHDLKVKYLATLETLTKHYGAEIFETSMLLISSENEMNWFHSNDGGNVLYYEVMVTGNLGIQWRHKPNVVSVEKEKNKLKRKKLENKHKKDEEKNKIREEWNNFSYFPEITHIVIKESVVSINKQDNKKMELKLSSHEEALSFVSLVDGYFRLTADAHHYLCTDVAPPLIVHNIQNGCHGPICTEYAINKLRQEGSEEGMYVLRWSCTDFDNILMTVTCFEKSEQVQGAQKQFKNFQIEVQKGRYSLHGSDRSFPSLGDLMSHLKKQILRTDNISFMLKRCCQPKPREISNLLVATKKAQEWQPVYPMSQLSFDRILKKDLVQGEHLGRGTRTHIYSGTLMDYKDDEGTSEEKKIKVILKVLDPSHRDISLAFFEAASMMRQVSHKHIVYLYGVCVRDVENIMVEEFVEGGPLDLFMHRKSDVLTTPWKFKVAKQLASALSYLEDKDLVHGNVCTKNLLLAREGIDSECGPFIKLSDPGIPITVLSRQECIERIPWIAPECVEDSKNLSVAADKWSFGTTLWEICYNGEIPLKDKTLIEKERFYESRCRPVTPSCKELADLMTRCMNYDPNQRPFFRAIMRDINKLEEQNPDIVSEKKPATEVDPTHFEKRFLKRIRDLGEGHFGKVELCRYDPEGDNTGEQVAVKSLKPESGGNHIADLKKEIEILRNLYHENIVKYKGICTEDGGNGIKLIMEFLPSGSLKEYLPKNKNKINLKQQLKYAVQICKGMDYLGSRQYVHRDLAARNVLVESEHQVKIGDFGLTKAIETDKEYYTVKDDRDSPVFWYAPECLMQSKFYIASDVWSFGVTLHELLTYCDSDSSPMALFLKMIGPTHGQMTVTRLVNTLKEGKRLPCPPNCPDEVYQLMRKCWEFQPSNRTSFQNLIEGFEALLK

[11] = species: Homo sapiens; assay: Selectivity ratio of Ki(app) for JAK1 (unknown origin) to Ki(app) for JAK2 (unknown origin)
[12] = target: T2, Tyrosine-protein kinase JAK2 (Homo sapiens, UniProt O60674); assay: Inhibition of JAK2 (unknown origin); conditions: read-out: Ki(app)
T2 sequence (O60674 whole entry): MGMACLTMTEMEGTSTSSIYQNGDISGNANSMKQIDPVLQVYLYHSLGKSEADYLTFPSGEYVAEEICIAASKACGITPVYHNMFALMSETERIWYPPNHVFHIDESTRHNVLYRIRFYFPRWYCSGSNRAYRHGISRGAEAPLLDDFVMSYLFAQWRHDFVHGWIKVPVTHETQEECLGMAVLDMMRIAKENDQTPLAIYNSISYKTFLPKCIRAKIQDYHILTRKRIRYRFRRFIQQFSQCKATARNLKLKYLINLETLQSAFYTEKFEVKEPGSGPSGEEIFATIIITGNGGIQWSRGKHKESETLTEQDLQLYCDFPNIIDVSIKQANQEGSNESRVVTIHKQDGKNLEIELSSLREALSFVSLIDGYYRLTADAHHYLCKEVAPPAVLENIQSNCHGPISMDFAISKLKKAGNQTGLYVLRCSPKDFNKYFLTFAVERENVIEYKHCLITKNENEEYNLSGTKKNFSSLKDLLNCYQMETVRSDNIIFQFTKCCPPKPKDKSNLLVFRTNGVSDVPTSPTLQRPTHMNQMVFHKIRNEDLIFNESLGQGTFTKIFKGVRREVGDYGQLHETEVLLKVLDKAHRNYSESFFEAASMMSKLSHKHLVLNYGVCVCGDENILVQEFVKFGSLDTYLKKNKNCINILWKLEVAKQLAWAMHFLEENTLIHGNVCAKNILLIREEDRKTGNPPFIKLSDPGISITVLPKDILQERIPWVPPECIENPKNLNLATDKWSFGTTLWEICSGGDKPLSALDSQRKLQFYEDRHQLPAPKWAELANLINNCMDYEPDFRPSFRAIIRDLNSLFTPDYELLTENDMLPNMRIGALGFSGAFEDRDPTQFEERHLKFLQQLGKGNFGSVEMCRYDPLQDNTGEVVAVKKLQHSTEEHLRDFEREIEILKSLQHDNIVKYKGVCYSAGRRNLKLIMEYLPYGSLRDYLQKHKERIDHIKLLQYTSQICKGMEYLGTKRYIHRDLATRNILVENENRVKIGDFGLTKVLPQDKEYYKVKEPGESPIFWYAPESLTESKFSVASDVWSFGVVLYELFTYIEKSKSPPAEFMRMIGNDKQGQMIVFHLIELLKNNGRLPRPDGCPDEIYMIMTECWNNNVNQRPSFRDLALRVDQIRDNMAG

[13] = target: T2, Tyrosine-protein kinase JAK2; assay: Inhibition of JAK2 (unknown origin) at 1 uM

| Compound | Ki [1] [nM] | Ratio Ki(app) [2] | Ki [3] [nM] | other results |
| --- | --- | --- | --- | --- |
| CN1CCN(c2ccc(NC(=O)c3c(NCCc4cccc(Cl)c4)cc[nH]c3=O)cc2)CC1 | 66 | 1 | 43 |  |
| CN1CCN(c2ccc(NC(=O)c3c(NCCc4ccccc4)cc[nH]c3=O)cc2)CC1 | 117 | < 1 | 49 |  |
| COc1ccccc1Nc1cc[nH]c(=O)c1-c1nc2c(C(C)C)cccc2[nH]1 | 58 | 42 | 2400 | Ratio Ki(app) [4]: 2; Ratio Ki(app) [5]: 0.2 |
| COc1ccccc1Nc1cc[nH]c(=O)c1C(=O)Nc1ccc(N2CCN(C)CC2)nc1 | 78 | > 33 | > 2500 | solubility kinetic at 24 h [6]: 65 µM (≈ 28.2 µg/mL); logD [7]: 2.6 |
| Cc1ccccc1Nc1cc[nH]c(=O)c1C(=O)Nc1ccc(N2CCN(C)CC2)cc1 | 61 | 38 | 2340 |  |
| O=C(Nc1ccccc1)c1c(NCCc2cccc(Cl)c2)cc[nH]c1=O | 330 | 2 | 1210 |  |
| COc1ccccc1Nc1cc[nH]c(=O)c1C(=O)Nc1ccc(CN2CCN(C)CC2)cc1 | 51 | 22 | 1200 |  |
| CN1CCN(c2ccc(NC(=O)c3c(Nc4ccccn4)cc[nH]c3=O)cc2)CC1 | 108 | > 24 | > 2540 |  |
| COc1ccccc1N(C)c1cc[nH]c(=O)c1C(=O)Nc1ccc(N2CCN(C)CC2)cc1 | > 2060 | 1 | > 2540 |  |
| COc1ccccc1Nc1cc[nH]c(=O)c1C(=O)Nc1ccc(N2CCS(=O)(=O)CC2)cc1 | 37 | > 34 | > 1300 |  |
| CN1CCN(c2ccc(NC(=O)c3c(Nc4cccc(Cl)c4)cc[nH]c3=O)cc2)CC1 | 155 | 16 | 2520 |  |
| COc1ccccc1Nc1cc[nH]c(=O)c1C(=O)Nc1ccc(C2CCN(C)CC2)cc1 | 15 | 29 | 634 | solubility kinetic at 24 h [6]: 61 µM (≈ 26.4 µg/mL); Ratio EC50 [8]: > 23; EC50 [9]: 433 nM; logD [7]: 2.7 |
| CN1CCN(c2ccc(NC(=O)c3c(Nc4ccc(Cl)cc4)cc[nH]c3=O)cc2)CC1 | 629 | > 4 | > 2540 |  |
| CN1CCN(c2ccc(NC(=O)c3c(N)cc[nH]c3=O)cc2)CC1 | 346 | > 7 | > 2540 |  |
| CN1CCN(c2ccc(NC(=O)c3c(Nc4ccccc4)cc[nH]c3=O)cc2)CC1 | 144 | > 18 | > 2540 |  |
| CN1CCN(c2ccc(NC(=O)c3c(NCCc4ccc(Cl)cc4)cc[nH]c3=O)cc2)CC1 | 262 | < 1 | 37 |  |

| Compound | Ki [1] [nM] | Ratio Ki(app) [2] | Ki [3] [nM] | other results |
| --- | --- | --- | --- | --- |
| COc1ccccc1Nc1cc[nH]c(=O)c1C(=O)Nc1ccc(N2CCCN(C)CC2)cc1 | 12 | 57 | 705 |  |
| CN(C)c1ccc(NC(=O)c2c(NCCc3cccc(Cl)c3)cc[nH]c2=O)cc1 | 290 | 1 | 757 |  |
| COc1ccccc1Nc1cc[nH]c(=O)c1C(=O)Nc1ccc(N2CCN(C)CC2)c(C)c1 | 26 | 16 |  | Ratio Ki(app) [4]: 42; Ratio Ki(app) [5]: 0.9 |
| CN1CCN(c2ccc(NC(=O)c3c(Nc4ccccc4Cl)cc[nH]c3=O)cc2)CC1 | 82 | 18 | 1480 |  |
| CN1CCN(c2ccc(NC(=O)c3c(NC[C@@H](O)c4cccc(Cl)c4)cc[nH]c3=O)cc2)CC1 | 65 | < 1 | 18 | solubility kinetic at 24 h [6]: 11 µM (≈ 5.3 µg/mL); EC50 [9]: 412 nM |
| COc1ccccc1Nc1cc[nH]c(=O)c1C(=O)Nc1ccc(N2CCN(C)CC2)cc1 | 19 | 58 | 1090 | solubility kinetic at 24 h [6]: 4 µM (≈ 1.73 µg/mL); Ki [10]: 172 nM; Ratio Ki(app) [11]: 10; Ratio Ki(app) [4]: 9; Ki [12]: 9 nM; Ratio EC50 [8]: 5; Ratio Ki(app) [5]: 0.5; inhibition [13]: Active; EC50 [9]: 1090 nM; logD [7]: 3.5 |
| COc1ccccc1Nc1cc[nH]c(=O)c1C(N)=O | > 688 | > 3.6 | > 2500 |  |
| CN1CCN(c2ccc(NC(=O)c3c(Nc4ccnc(N)n4)cc[nH]c3=O)cc2)CC1 | 4 | 213 | 850 | Ratio Ki(app) [4]: 3; Ratio Ki(app) [5]: 2; inhibition [13]: Active |
| COc1ccccc1Nc1cc[nH]c(=O)c1C(=O)Nc1ccc(N2CCC(C)CC2)cc1 | 625 | > 4.1 | > 2500 |  |
| CCc1cc(NC(=O)c2c(Nc3ccccc3OC)cc[nH]c2=O)ccc1N1CCN(C)CC1 | 31 | > 80 |  | Ratio Ki(app) [4]: 104; Ratio Ki(app) [5]: 4 |
| COc1ccccc1Nc1cc[nH]c(=O)c1-c1nc2c(C(C)C)ccc(C)c2[nH]1 | 88 | 27 |  | Ratio Ki(app) [4]: 6; Ratio Ki(app) [5]: 0.3 |
| COc1ccccc1Nc1cc[nH]c(=O)c1C(=O)Nc1ccc(N2CCN(C)CC2)cn1 | > 2060 | 1 | > 2500 |  |
| CN1CCN(c2ccc(NC(=O)c3c(Nc4ccncc4N)cc[nH]c3=O)cc2)CC1 | 145 | > 8 | > 1230 |  |
| CN1CCN(c2ccc(NC(=O)c3c(Nc4ccncn4)cc[nH]c3=O)cc2)CC1 | 95 | > 27 | > 2540 |  |
| CN1CCN(c2ccc(NC(=O)c3c(NCc4ccccc4)cc[nH]c3=O)cc2)CC1 | 350 | 1 | 349 |  |
